Data published in patent US10550105B2 (Ribon Therapeutics Inc., priority 2018, dated 2020).

Biological target: PARP7 (Homo sapiens (Human), UniProt Q7Z3E1)
Assay: Enzymatic assay for inhibition of PARP7: TR-FRET displacement of biotinylated Probe A from the TIPARP active site
Assay type: binding
Settings: Table A-1
Summary of the method: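 Compound dose-response series were incubated with TIPARP and biotinylated Probe A, with a final 30 min step at 25 °C. TR-FRET was read at 320 nm excitation, 615/665 nm emission and 90 μs delay, using the 665/615 ratio to measure complex formation. % inhibition was fitted with a floating or fixed (1) Hill coefficient.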

Sequence of PARP7 (Q7Z3E1 whole entry): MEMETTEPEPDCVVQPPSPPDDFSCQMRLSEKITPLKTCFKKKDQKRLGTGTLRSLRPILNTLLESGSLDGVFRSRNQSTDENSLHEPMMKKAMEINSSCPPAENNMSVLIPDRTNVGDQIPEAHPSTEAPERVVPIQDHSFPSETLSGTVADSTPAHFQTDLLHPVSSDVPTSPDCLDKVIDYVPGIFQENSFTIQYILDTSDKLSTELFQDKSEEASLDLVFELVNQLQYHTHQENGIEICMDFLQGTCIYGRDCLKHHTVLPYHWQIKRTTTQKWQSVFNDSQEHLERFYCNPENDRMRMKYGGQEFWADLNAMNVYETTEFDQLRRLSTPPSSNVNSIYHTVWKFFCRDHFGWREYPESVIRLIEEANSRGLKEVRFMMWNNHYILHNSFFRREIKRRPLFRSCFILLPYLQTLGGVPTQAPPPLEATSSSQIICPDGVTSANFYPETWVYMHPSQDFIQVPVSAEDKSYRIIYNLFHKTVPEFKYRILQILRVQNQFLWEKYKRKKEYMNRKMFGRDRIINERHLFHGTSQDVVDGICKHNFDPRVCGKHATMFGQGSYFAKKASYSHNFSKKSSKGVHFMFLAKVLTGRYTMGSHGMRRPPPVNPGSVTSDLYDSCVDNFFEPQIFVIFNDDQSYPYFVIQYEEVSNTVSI

SMILES | IC50
CN1CCN(C(=O)c2cccc(OCC3c4ccccc4CN3c3cn[nH]c(=O)c3C(F)(F)F)c2)CC1 (stereo not drawn) [Example 362, 5-(1-((3-(4-Methylpiperazine-1-carbonyl)phenoxy)methyl)isoindolin-2-yl)-4-(trifluoromethyl)pyridazin-3(2H)-one] | 100 to 1000 nM
O=c1[nH]ncc(N2Cc3cccc(OC4CCOCC4)c3C2)c1C(F)(F)F [Example 194, 5-(4-((Tetrahydro-2H-pyran-4-yl)oxy)isoindolin-2-yl)-4-(trifluoromethyl)pyridazin-3(2H)-one] | < 100 nM
C[C@@H](COCCS(=O)(=O)N1CCN(c2ncc(C(F)(F)F)s2)CC1)Nc1cn[nH]c(=O)c1Cl [Example 731, (S)-4-Chloro-5-((1-(2-((4-(5-(trifluoromethyl)thiazol-2-yl)piperazin-1-yl)sulfonyl)ethoxy)propan-2-yl)amino)pyridazin-3(2H)-one] | < 100 nM
COC[C@@H](COCCC(=O)N1CCN(c2ccc(C(F)(F)F)cn2)CC1)Nc1cn[nH]c(=O)c1C(F)(F)F [Example 594, 5-[[(2S)-1-Methoxy-3-(3-oxo-3-[4-[5-(trifluoromethyl)pyridin-2-yl]piperazin-1-yl]propoxy)propan-2-yl]amino]-4-(trifluoromethyl)-2,3-dihydropyridazin-3-one] | < 100 nM
O=c1[nH]ncc(N2Cc3ccccc3[C@H]2CO)c1C(F)(F)F [Example 247, (S)-5-(1-(Hydroxymethyl)isoindolin-2-yl)-4-(trifluoromethyl)pyridazin-3(2H)-one] | ≥ 1000 nM
CN1CCC(NCc2cc3c(cc2F)CN(c2cn[nH]c(=O)c2C(F)(F)F)C3)CC1 [Example 25, 5-(5-fluoro-6-[[(1-methylpiperidin-4-yl)amino]methyl]-2,3-dihydro-1H-isoindol-2-yl)-4-(trifluoromethyl)-2,3-dihydropyridazin-3-one] | < 100 nM
O=c1[nH]ncc(N2Cc3cccc(OCC4CCCO4)c3C2)c1C(F)(F)F (stereo not drawn) [Example 201, 5-(4-((Tetrahydrofuran-2-yl)methoxy)isoindolin-2-yl)-4-(trifluoromethyl)pyridazin-3(2H)-one] | < 100 nM
N#Cc1ccc(N2CCN(C(=O)C[C@H]3CC[C@@H](COc4cn[nH]c(=O)c4Cl)O3)CC2)nc1 [Example 582 Isomer C, 6-(4-[2-[(2R,5S)-5-[[(5-Chloro-6-oxo-1,6-dihydropyridazin-4-yl)oxy]methyl]oxolan-2-yl]acetyl]piperazin-1-yl)pyridine-3-carbonitrile] | ≥ 1000 nM
CC(=O)N1CCC(Oc2cc3c(cn2)CN(c2cn[nH]c(=O)c2C(F)(F)F)C3)CC1 [Example 13] | < 100 nM
N#Cc1cnc(N2CCN(C(=O)CCOC[C@@H]3CCCN3c3cn[nH]c(=O)c3C(F)(F)F)CC2)cn1 [Example 474, (S)-5-(4-(3-((1-(6-Oxo-5-(trifluoromethyl)-1,6-dihydropyridazin-4-yl)pyrrolidin-2-yl)methoxy)propanoyl)piperazin-1-yl)pyrazine-2-carbonitrile] | < 100 nM
O=c1[nH]ncc(N2Cc3ccc(OC4CCN(C(c5ccccc5)c5ccccc5)CC4)cc3C2)c1C(F)(F)F [Example 28, 5-(5-[[1-(diphenylmethyl)piperidin-4-yl]oxy]-2,3-dihydro-1H-isoindol-2-yl)-4-(trifluoromethyl)-2,3-dihydropyridazin-3-one] | < 100 nM
COc1cc2c(cc1F)CN(c1cn[nH]c(=O)c1C(F)(F)F)C2C (stereo not drawn) [Example 315, 5-(5-Fluoro-6-methoxy-1-methylisoindolin-2-yl)-4-(trifluoromethyl)pyridazin-3(2H)-one] | 100 to 1000 nM
N#Cc1ccc(N2CCN(C(=O)CCCOC[C@H]3c4ccccc4CN3c3cn[nH]c(=O)c3C(F)(F)F)CC2)nc1 [Example 409, (R)-6-(4-(4-((2-(6-Oxo-5-(trifluoromethyl)-1,6-dihydropyridazin-4-yl)isoindolin-1-yl)methoxy)butanoyl)piperazin-1-yl)nicotinonitrile] | 100 to 1000 nM
COC[C@@H](COCCC(=O)N1CCN(c2ccc(C#N)cn2)CC1)Oc1cn[nH]c(=O)c1C(F)(F)F (single isomer, unassigned) [Example 532 Isomer A] | < 100 nM
COCC[C@@H](COCCC(=O)N1CCN(c2ncc(C(F)(F)F)cn2)CC1)Nc1cn[nH]c(=O)c1C(F)(F)F [Example 686, (S)-5-((4-Methoxy-1-(3-oxo-3-(4-(5-(trifluoromethyl)pyrimidin-2-yl)piperazin-1-yl)propoxy)butan-2-yl)amino)-4-(trifluoromethyl)pyridazin-3(2H)-one] | < 100 nM
CN1CCC(Oc2cc3c(cc2F)CN(c2cn[nH]c(=O)c2C(F)(F)F)C3)C1 (stereo not drawn) [Example 55, 5-[5-fluoro-6-[(1-methylpyrrolidin-3-yl)oxy]-2,3-dihydro-1H-isoindol-2-yl]-4-(trifluoromethyl)-2,3-dihydropyridazin-3-one] | < 100 nM
O=c1[nH]ncc(N2Cc3ccc(O)cc3C2)c1C(F)(F)F [Example 219, 5-(5-Hydroxyisoindolin-2-yl)-4-(trifluoromethyl)pyridazin-3(2H)-one] | < 100 nM

SMILES | IC50
N#Cc1ccc(N2CCN(C(=O)c3cc(OCC4c5ccccc5CN4c4cn[nH]c(=O)c4C(F)(F)F)cnc3F)CC2)nc1 (stereo not drawn) [Example 61, 6-(4-[[2-fluoro-5-([2-[6-oxo-5-(trifluoromethyl)-1,6-dihydropyridazin-4-yl]-2,3-dihydro-1H-isoindol-1-yl]methoxy)pyridin-3-yl]carbonyl]piperazin-1-yl)pyridine-3-carbonitrile] | < 100 nM
C[C@@H](COCCC(=O)N1CCN(c2nnc(C(F)(F)F)s2)CC1)Nc1cn[nH]c(=O)c1C(F)(F)F [Example 722, (S)-5-((1-(3-Oxo-3-(4-(5-(trifluoromethyl)-1,3,4-thiadiazol-2-yl)piperazin-1-yl)propoxy)propan-2-yl)amino)-4-(trifluoromethyl)pyridazin-3(2H)-one] | < 100 nM
N#Cc1ccc(N2CCC(NC(=O)CCOC[C@@H]3CCCN3c3cn[nH]c(=O)c3C(F)(F)F)C2)nc1 (stereo partly drawn) [Example 117, N-[1-(5-cyanopyridin-2-yl)pyrrolidin-3-yl]-3-[[(2S)-1-[6-oxo-5-(trifluoromethyl)-1,6-dihydropyridazin-4-yl]pyrrolidin-2-yl]methoxy]propanamide] | 100 to 1000 nM
COC[C@H](COCCC(=O)N1CCN(c2cnc(Cl)cn2)CC1)Oc1cn[nH]c(=O)c1C(F)(F)F [Example 697, (R)-5-((1-(3-(4-(5-Chloropyrazin-2-yl)piperazin-1-yl)-3-oxopropoxy)-3-methoxypropan-2-yl)oxy)-4-(trifluoromethyl)pyridazin-3(2H)-one] | 100 to 1000 nM
Cc1cnc(N2CCN(C(=O)CCOC[C@H](C)Nc3cn[nH]c(=O)c3C(F)(F)F)CC2)s1 [Example 733, (S)-5-((1-(3-(4-(5-Methylthiazol-2-yl)piperazin-1-yl)-3-oxopropoxy)propan-2-yl)amino)-4-(trifluoromethyl)pyridazin-3(2H)-one] | < 100 nM
O=C(c1cccc(OC[C@@H]2CCCN2c2cn[nH]c(=O)c2C(F)(F)F)c1)N1CCN(c2ncccn2)CC1 [Example 445, (S)-5-(2-((3-(4-(Pyrimidin-2-yl)piperazine-1-carbonyl)phenoxy)methyl)pyrrolidin-1-yl)-4-(trifluoromethyl)pyridazin-3(2H)-one] | < 100 nM
CC(C)c1c(N2Cc3ccc(OC4CCCNC4)cc3C2)cn[nH]c1=O (stereo not drawn) [Example 287, 4-Isopropyl-5-(5-(piperidin-3-yloxy)isoindolin-2-yl)pyridazin-3(2H)-one] | ≥ 1000 nM
COC[C@@H](COCCC(=O)N1CCN(c2cnc(Cl)cn2)CC1)Nc1cn[nH]c(=O)c1C(F)(F)F [Example 678, (S)-5-((1-(3-(4-(5-Chloropyrazin-2-yl)piperazin-1-yl)-3-oxopropoxy)-3-methoxypropan-2-yl)amino)-4-(trifluoromethyl)pyridazin-3(2H)-one] | < 100 nM
O=c1[nH]ncc(N2Cc3cnc(OC4CCNCC4)cc3C2)c1C(F)(F)F [Example 12, 5-[6-(piperidin-4-yloxy)-1H,2H,3H-pyrrolo[3,4-c]pyridin-2-yl]-4-(trifluoromethyl)-2,3-dihydropyridazin-3-one] | 100 to 1000 nM
O=C(C[C@H]1CC[C@@H](COc2cn[nH]c(=O)c2Cl)O1)N1CCN(c2ncc(Cl)cn2)CC1 (single isomer, unassigned) [Example 566 Isomer C] | 100 to 1000 nM
O=c1[nH]ncc(N2Cc3cccc(OCC4CCCOC4)c3C2)c1C(F)(F)F (stereo not drawn) [Example 199, 5-(4-((Tetrahydro-2H-pyran-3-yl)methoxy)isoindolin-2-yl)-4-(trifluoromethyl)pyridazin-3(2H)-one] | < 100 nM
CN(CC1c2ccccc2CN1c1cn[nH]c(=O)c1C(F)(F)F)c1cccc(C(=O)N2CCN(c3ccccn3)CC2)c1 (stereo not drawn) [Example 344, 5-(1-((Methyl(3-(4-(pyridin-2-yl)piperazine-1-carbonyl)phenyl)amino)methyl)isoindolin-2-yl)-4-(trifluoromethyl)pyridazin-3(2H)-one] | 100 to 1000 nM
CN(C)CCOc1cc2c(cc1F)CN(c1cn[nH]c(=O)c1C(F)(F)F)C2 [Example 14, 5-[5-[2-(dimethylamino)ethoxy]-6-fluoro-2,3-dihydro-1H-isoindol-2-yl]-4-(trifluoromethyl)-2,3-dihydropyridazin-3-one; formic acid] | < 100 nM
O=C(C[C@@H]1CC[C@@H](COc2cn[nH]c(=O)c2C(F)(F)F)O1)N1CCN(c2ccc(C(F)(F)F)cn2)CC1 (single isomer, unassigned) [Example 545 Isomer A] | 100 to 1000 nM
O=C(c1cccc(OCC2c3ccccc3CN2c2cn[nH]c(=O)c2C(F)(F)F)c1)N1CCN(c2ccccn2)CC1 (stereo not drawn) [Example 341, 5-(1-((3-(4-(Pyridin-2-yl)piperazine-1-carbonyl)phenoxy)methyl)isoindolin-2-yl)-4-(trifluoromethyl)pyridazin-3(2H)-one] | < 100 nM
N#Cc1ccc(N2CCN(C(=O)C#CCOC[C@@H]3CCCN3c3cn[nH]c(=O)c3C(F)(F)F)CC2)nc1 [Example 119, 6-[4-(4-[[(2S)-1-[6-oxo-5-(trifluoromethyl)-1,6-dihydropyridazin-4-yl]pyrrolidin-2-yl]methoxy]but-2-ynoyl)piperazin-1-yl]pyridine-3-carbonitrile] | < 100 nM
